Reference: patent US20110160223A1, “NMDA Receptor Antagonists for the Treatment of Neuropsychiatric Disorders” (priority 2008, published 2011)
Read-outs that look alike come from different tables or passages of the source.

Tests used:
[1] = target: NMDA receptor (NR1 + NR2 subunits) (Rattus norvegicus, UniProt P35439+Q00960); test: Two electrode voltage clamp recording from Xenopus laevis oocytes (pH dependence of NMDA antagonism); format: cell-based; conditions: Table 22
Description: cRNA was synthesized from linearized template cDNA for rat glutamate receptor subunits according to manufacturer specifications (Ambion). Quality of synthesized cRNA was assessed by gel electrophoresis, and quantity was estimated by spectroscopy and gel electrophoresis. Stage V and VI oocytes were surgically removed from the ovaries of large, well-fed and healthy Xenopus laevis anesthetized with 3-amino-benzoic acid ethyl ester (3 gm/l) as previously described. Clusters of isolated oocytes were incubated with 292 U/ml Worthington (Freehold, N.J.) type IV collagenase or 1.3 mg/ml collagenase (Life Technologies, Gaithersburg, Md.; 17018-029) for 2 hr in Ca^2+-free solution comprised of (in mM) 115 NaCl, 2.5 KCl, and 10 HEPES, pH 7.5, with slow agitation to remove the follicular cell layer. Oocytes were then washed extensively in the same solution supplemented with 1.8 mM CaCl2 and maintained in Barth's solution comprised of (in mM): 88 NaCl, 1 KCl, 2.4 NaHCO3, 10 HEPES, 0.82 MgSO4, 0.33 Ca(NO3)2, and 0.91 CaCl2 and supplemented with 100 μg/ml gentamycin, 10 μg/ml streptomycin, and 10 μg/ml penicillin. Oocytes were manually defolliculated and injected within 24 hrs of isolation with 3-5 ng of NR1 subunit cRNA and 7-10 ng of NR2 cRNA subunit in a 50 nl volume, or 5-10 ng of AMPA or kainate receptor cRNAs in a 50 nl volume, and incubated in Barth's solution at 18° C. for 1-7 d. Glass injection pipettes had tip sizes ranging from 10-20 microns, and were backfilled with mineral oil.
Two electrode voltage-clamp recordings were made 2-7 days post-injection as previously described. Oocytes were placed in a dual-track plexiglass recording chamber with a single perfusion line that splits in a Y-configuration to perfuse two oocytes. Dual recordings were made at room temperature (23° C.) using two Warner OC725B two-electrode voltage clamp amplifiers, arranged as recommended by the manufacturer. Glass microelectrodes (1-10 Megaohms) were filled with 300 mM KCl (voltage electrode) or 3 M KCl (current electrode). The bath clamps communicated across silver chloride wires placed into each side of the recording chamber, both of which were assumed to be at a reference potential of 0 mV. Oocytes were perfused with a solution comprised of (in mM) 90 NaCl, 1 KCl, 10 HEPES, and 0.5 BaCl2; pH was adjusted by addition of 1-3 M NaOH of HCl. Oocytes were recorded under voltage clamp at −40 mV. Final concentrations for control application of glutamate (50 μM) plus glycine (30 μM) were achieved by adding appropriate volumes from 100 and 30 mM stock solutions, respectively. In addition, 10 μM final EDTA was obtained by adding a 1:1000 dilution of 10 mM EDTA, in order to chelate contaminant divalent ions such as Zn^2+. Concentration-response curves for experimental compounds were obtained by applying in successive fashion maximal glutamate/glycine, followed by glutamate/glycine plus variable concentrations of experimental compounds. Dose response curves consisting of 4 to 8 concentrations were obtained in this manner. The baseline leak current at −40 mV was measured before and after recording, and the full recording linearly corrected for any change in leak current. Oocytes with glutamate-evoked responses smaller than 50 nA were not included in the analysis. The level of inhibition by applied experimental compounds was expressed as a percent of the initial glutamate response, and averaged together across oocytes from a single frog. Each experiment consisted of recordings from 3 to 10 oocytes obtained from a single frog. Results from 3-6 experiments were pooled, and the average percent responses at antagonist concentrations were fitted by the equation,
Percent Response=(100−minimum)/(1+([conc]/IC50)^nH)+minimum […]

[2] = target: rat alpha-1 adrenergic receptor in rat brain membranes; test: alpha-1 adrenergic receptor binding by displacement of 3[H]-prazosin; conditions: 3[H]-prazosin displacement, read-out: α1 IC50
Description: Binding to the rat alpha-1 adrenergic receptor in rat brain membranes was determined by displacement of ^3[H]-prazosin (P. Greengrass and R. Bremner; Binding characteristics of 3H-prazosin to rat brain a-adrenergic receptors. Eur. J. Pharmacol. 1979, 55: 323-326). Compounds were incubated at 0.3 or 3 μM final concentration, in duplicate, and the amount of displaced ^3[H]-prazosin determined by liquid scintillation spectroscopy.
(§1) Binding IC50 values were determined from displacement curves (four-six concentrations, each concentration in duplicate) fit by a non-linear, least squares, regression analysis using MathIQ (ID Business Solutions Ltd., UK). The binding Ki's were determined from the IC50 according to the method of Cheng and Prusoff (Y. Cheng and W. H. Prusoff; Relationship between the inhibition constant (K1) and the concentration of inhibitor which causes 50 percent inhibition (IC50) of an enzymatic reaction. Biochem. Pharmacol. 1973, 22: 3099-3108).

[3] = target: T1, human ether-a-go-go potassium channel (hERG) expressed in HEK293 cells (Homo sapiens, UniProt Q12809); test: hERG binding by displacement of 3[H]-astemizole; conditions: 3[H]-astemizole displacement; Ki from IC50 by Cheng and Prusoff
T1 construct: expressed in transfected cells; host or cells: HEK293
T1 sequence (Q12809 whole entry): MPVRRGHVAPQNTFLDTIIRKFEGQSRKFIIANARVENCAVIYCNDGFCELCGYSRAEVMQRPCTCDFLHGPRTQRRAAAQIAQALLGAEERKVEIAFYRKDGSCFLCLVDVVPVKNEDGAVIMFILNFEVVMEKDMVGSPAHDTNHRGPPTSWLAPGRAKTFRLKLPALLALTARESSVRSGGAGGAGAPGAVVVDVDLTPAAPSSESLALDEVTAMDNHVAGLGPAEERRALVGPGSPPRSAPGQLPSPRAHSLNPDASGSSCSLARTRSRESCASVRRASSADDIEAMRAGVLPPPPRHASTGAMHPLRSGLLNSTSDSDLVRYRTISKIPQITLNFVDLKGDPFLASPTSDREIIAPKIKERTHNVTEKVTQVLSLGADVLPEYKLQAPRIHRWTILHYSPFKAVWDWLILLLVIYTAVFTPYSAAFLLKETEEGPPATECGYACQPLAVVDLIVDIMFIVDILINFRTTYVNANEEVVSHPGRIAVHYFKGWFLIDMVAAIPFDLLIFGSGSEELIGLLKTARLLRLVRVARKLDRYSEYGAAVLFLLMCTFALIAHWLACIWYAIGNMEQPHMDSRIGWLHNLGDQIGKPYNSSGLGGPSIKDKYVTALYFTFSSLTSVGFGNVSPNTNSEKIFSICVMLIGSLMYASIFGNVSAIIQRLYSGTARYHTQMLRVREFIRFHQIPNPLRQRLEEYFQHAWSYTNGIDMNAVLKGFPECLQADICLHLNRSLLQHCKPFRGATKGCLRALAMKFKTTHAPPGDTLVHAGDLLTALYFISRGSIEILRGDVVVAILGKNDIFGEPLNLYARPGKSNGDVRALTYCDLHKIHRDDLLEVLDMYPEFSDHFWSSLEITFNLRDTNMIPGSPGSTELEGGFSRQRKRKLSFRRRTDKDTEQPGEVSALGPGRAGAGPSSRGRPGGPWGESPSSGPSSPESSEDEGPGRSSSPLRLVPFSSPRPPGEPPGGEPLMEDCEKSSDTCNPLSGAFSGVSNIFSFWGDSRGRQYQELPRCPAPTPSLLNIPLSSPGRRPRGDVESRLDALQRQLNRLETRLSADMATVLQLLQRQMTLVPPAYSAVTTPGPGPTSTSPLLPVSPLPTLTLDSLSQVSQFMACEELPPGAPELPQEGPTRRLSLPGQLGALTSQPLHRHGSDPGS
Description: Compounds were evaluated for binding to the human ether-a-go-go potassium channel (hERG) expressed in HEK293 cells by displacement of ^3[H]-astemizole according to the methods by Finlayson et al. (K. Finlayson., L. Turnbull, C. T. January, J. Sharkey, J. S. Kelly; ^3[H]Dofetilide binding to HERG transfected membranes: a potential high throughput preclinical screen. Eur. J. Pharmacol. 2001, 430, 147-148). Compounds were incubated at 1 or 10 μM final concentration, in duplicate, and the amount of displaced ^3[H]-astemizole determined by liquid scintillation spectroscopy. In some cases, a seven concentration (each concentration in duplicate) displacement curve was generated to determine an IC50.
as §1

[4] = Brain exposure (brain:plasma ratio, Table 24); format: in vivo, Rats; conditions: rat, brain and plasma, read-out: RATIO: Brain:plasma (Direct); for Kp at 30 min: 30 m; for Kp: avg
Description: Animals were fasted overnight prior to dose administration and food returned to the animals two hours after dosing. Following IV dosing, blood samples (ca 200 μL) were collected into separate tubes containing anticoagulant (K-EDTA) via the orbital plexus at various times post administration. Plasma samples were prepared immediately after collection by centrifugation for ten minutes using a tabletop centrifuge, and stored at −80° C. Brain tissue was weighed, homogenized on ice in 50 mM phosphate buffer (2 ml per brain) and the homogenate stored at −80° C. Plasma and brain homogenate samples were extracted by the addition of 5 volumes of cold acetonitrile, mixed well by vortexing and centrifuged at 4000 rpm for 15 minutes. The supernatant fractions were analyzed by LC-MS/MS operating in multiple reaction monitoring mode (MRM). The amount of parent compound in each sample was calculated by comparing the response of the analyte in the sample to that of a standard curve.

[5] = tested on: MDR1-MDCK cell monolayers that express the multidrug transporter P-gp; test: In vitro cell permeability assay to predict brain penetration potential; format: in vitro ADME; design: key: High: when Papp A−B≧3.0×10−6 cm/s, and efflux<3.0; Moderate: when Papp A−B≧3.0×10−6 cm/s, and 10>efflux≧3.0; Low: when either Papp A−B≧3.0×10−6 cm/s, and efflux≧10, or when Papp A−B<3.0×10−6 cm/s; conditions: 5 μM, pH 7.4, 2 hr, from Papp A-B and efflux ratio
Description: Penetration Classification (Table 24) using the in vitro cell permeability assay to predict bran penetration potential: Transwell® wells containing MDR1-MDCK cell monolayers that express the multidrug transporter P-gp were used for measuring the percent recovery of compound after dosing both sides of a cell monolayer with the test article. Monolayers were grown for 7-11 days at which time 5 μM of the test article was made by dilution from DMSO stocks into a Hank's balanced salt solution (pH 7.4), final DMSO not greater than 1%, and added to: a) the apical side for A-B permeability (apical to basal) assessment, or separately b) the basal side for the B-A permeability (basal to apical) assessment, all at pH 7.4. After a 2 hr incubation (37° C.) both the apical and the basal compartments were sampled and the amount of test article present determined by generic LC-MS/MS methods against a ≧4 point calibration curve. Experiments were done in duplicate. Apparent permeability (Papp units are reported×10−6 cm/s) are determined for the A−B and the B−A directions as well as the Efflux ratio (PappB−A/Papp A−B). The blood-brain barrier penetration potential is classified as follows: “High” when Papp A−B≧3.0×10−6 cm/s, and efflux<3.0; “Moderate” when Papp A−B≧3.0×10−6 cm/s, and 10>efflux≧3.0; and “Low” when either Papp A−B≧3.0×10−6 cm/s, and efflux≧10, or when Papp A−B<3.0×10−6 cm/s.

Chain of NMDA receptor (NR1 + NR2 subunits) (Q00960 27-1482, other chains not shown): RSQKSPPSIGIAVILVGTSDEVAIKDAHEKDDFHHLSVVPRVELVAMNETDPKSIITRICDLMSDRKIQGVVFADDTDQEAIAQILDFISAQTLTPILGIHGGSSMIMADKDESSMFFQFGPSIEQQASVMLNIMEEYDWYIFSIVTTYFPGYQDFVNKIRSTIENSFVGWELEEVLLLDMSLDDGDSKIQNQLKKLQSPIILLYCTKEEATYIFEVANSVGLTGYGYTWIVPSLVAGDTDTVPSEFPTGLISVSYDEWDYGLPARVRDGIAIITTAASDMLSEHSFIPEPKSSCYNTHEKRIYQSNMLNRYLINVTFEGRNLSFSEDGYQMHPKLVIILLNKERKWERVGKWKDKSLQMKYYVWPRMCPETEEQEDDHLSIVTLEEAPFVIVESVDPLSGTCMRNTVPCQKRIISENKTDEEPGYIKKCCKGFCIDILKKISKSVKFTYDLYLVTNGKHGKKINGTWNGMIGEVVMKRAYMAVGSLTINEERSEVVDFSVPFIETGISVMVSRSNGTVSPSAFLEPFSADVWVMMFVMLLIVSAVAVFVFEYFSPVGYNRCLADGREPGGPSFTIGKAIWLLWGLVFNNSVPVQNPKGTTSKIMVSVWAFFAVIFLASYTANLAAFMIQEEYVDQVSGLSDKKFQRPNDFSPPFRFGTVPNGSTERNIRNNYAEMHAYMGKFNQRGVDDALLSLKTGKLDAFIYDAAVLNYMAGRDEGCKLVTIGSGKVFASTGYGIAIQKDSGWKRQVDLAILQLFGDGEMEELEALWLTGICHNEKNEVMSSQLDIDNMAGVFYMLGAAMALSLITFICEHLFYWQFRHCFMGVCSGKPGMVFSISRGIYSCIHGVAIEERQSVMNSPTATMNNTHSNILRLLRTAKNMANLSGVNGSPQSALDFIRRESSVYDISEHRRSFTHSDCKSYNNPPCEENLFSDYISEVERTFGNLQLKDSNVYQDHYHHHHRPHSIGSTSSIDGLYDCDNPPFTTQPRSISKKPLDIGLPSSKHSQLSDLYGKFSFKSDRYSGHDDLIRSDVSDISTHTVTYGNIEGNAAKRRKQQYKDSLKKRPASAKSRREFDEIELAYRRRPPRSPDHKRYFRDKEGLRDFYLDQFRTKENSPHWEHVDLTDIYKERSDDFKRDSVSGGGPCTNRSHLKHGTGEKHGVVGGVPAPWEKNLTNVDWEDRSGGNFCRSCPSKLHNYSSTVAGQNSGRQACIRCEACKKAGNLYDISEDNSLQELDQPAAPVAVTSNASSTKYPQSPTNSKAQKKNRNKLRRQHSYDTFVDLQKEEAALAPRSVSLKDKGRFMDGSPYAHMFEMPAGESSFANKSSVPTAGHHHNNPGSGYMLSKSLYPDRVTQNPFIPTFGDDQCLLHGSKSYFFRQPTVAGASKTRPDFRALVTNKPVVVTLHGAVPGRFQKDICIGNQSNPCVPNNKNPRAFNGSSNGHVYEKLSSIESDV

## CS(=O)(=O)Nc1ccc(OC[C@@H](O)CN2CCN(c3ccc(Cl)cc3)CC2)cc1
[1]; pH 6.9, read-out: IC50 pH 6.9
  IC50: 32 nM
[1]; pH 7.6, read-out: IC50 pH 7.6
  IC50: 270 nM
[2]
  IC50: 350 nM
[3]
  Ki: 553 nM

## O[C@H](COc1ccc2[nH]ncc2c1)CN1CCN(c2ccc(Cl)cc2)CC1
[1]; pH 6.9, read-out: IC50 pH 6.9
  IC50: 410 nM
[1]; pH 7.6, read-out: IC50 pH 7.6
  IC50: 3830 nM
[2]
  IC50: ~300 nM
[3]
  Ki: ~1000 nM

## O=c1ccc2cc(OC[C@@H](O)CN3CCN(c4ccc(Cl)cc4)CC3)ccc2[nH]1
[1]; pH 6.9, read-out: IC50 pH 6.9
  IC50: 69 nM
[1]; pH 7.6, read-out: IC50 pH 7.6
  IC50: 550 nM
[2]
  IC50: ~350 nM
[3]
  Ki: ~7500 nM

## O=C1Cc2cc(OC[C@@H](O)CN3CCN(c4ccc(Cl)cc4)CC3)ccc2N1
[1]; pH 6.9, read-out: IC50 pH 6.9
  IC50: 370 nM
[1]; pH 7.6, read-out: IC50 pH 7.6
  IC50: 29 nM
[2]
  IC50: ~100 nM
[3]
  Ki: ~10000 nM

## O[C@H](COc1ccc2[nH]c(=S)[nH]c2c1)CN1CCN(c2ccc(Cl)cc2)CC1
[1]; pH 6.9, read-out: IC50 pH 6.9
  IC50: 16 nM
[1]; pH 7.6, read-out: IC50 pH 7.6
  IC50: 76 nM
[2]
  IC50: ~150 nM
[3]
  Ki: ~7500 nM

## O=C1CCc2cc(OC[C@@H](O)CN3CCN(c4ccc(Cl)cc4)CC3)ccc2N1
[1]; pH 6.9, read-out: IC50 pH 6.9
  IC50: 12 nM
[1]; pH 7.6, read-out: IC50 pH 7.6
  IC50: 66 nM
[2]
  IC50: ~100 nM
[3]
  Ki: ~5000 nM

## Oc1ccc(OC[C@@H](O)CN2CCN(c3ccc(Cl)cc3)CC2)cc1 [drawing 775]
[1]; pH 6.9, read-out: IC50 pH 6.9
  IC50: 74 nM
[1]; pH 7.6, read-out: IC50 pH 7.6
  IC50: 555 nM
[2]
  IC50: 720 nM
[3]
  Ki: 39000 nM

## O=c1[nH]c2ccc(OC[C@@H](O)CN3CCN(c4ccc(Cl)cc4)CC3)cc2o1 [drawing 776]
[1]; pH 6.9, read-out: IC50 pH 6.9
  IC50: 51 nM
[1]; pH 7.6, read-out: IC50 pH 7.6
  IC50: 447 nM
[2]
  IC50: 620 nM
[3]
  Ki: 1600 nM

## NC(=O)Nc1ccc(OC[C@@H](O)CN2CCN(c3ccc(Cl)cc3)CC2)cc1 [drawing 778]
[1]; pH 6.9, read-out: IC50 pH 6.9
  IC50: 46 nM
[1]; pH 7.6, read-out: IC50 pH 7.6
  IC50: 452 nM
[2]
  IC50: 340 nM
[3]
  Ki: 13000 nM

## O=c1[nH]c2ccc(OC[C@@H](O)CN3CCN(c4ccc(Cl)cc4)CC3)cc2[nH]1 [drawing 781]
[1]; pH 6.9, read-out: IC50 pH 6.9
  IC50: 14 nM
[1]; pH 7.6, read-out: IC50 pH 7.6
  IC50: 103 nM
[2]
  IC50: ~350 nM
[3]
  Ki: ~7500 nM

## Oc1ccc(OC[C@@H](O)CN2CCN(c3ccc(Cl)cc3)CC2)cc1 [drawing 800]
[4]; iv, 3 mg/kg, 3 MPK i.v.
  Kp at 30 min: 11
  Kp: 10.2
[4]; iv, 3 mg/kg, 3 MPK i.v., 1 hr
  Kp at 1 h: 9.5
[5]
  BBB Pene Classification: High (when Papp A−B≧3.0×10−6 cm/s, and efflux<3.0)

## Cc1ccc(N2CCN(C[C@H](O)COc3ccc4[nH]c(=O)oc4c3)CC2)cc1 [drawing 801]
[4]; iv, 3 mg/kg, 3 MPK i.v.
  Kp at 30 min: 2.3
  Kp at 2 h: 1.7
  Kp: 2.3
[4]; iv, 3 mg/kg, 3 MPK i.v., 1 hr
  Kp at 1 h: 2.9
[5]
  BBB Pene Classification: Moderate (when Papp A−B≧3.0×10−6 cm/s, and 10>efflux≧3.0)

## CS(=O)(=O)Nc1ccc(OC[C@@H](O)CN2CCN(c3ccc(F)c(F)c3)CC2)cc1 [drawing 802]
[4]; ip, 60 mg/kg, 60 MPK, i.p.
  Kp at 30 min: 0.7
  Kp at 2 h: 0.7
  Kp: 0.77
[4]; ip, 60 mg/kg, 60 MPK, i.p., 4 hr
  Kp at 4 h: 0.9
[5]
  BBB Pene Classification: Moderate (when Papp A−B≧3.0×10−6 cm/s, and 10>efflux≧3.0)

## NC(=O)Nc1ccc(OC[C@@H](O)CN2CCN(c3ccc(Cl)cc3)CC2)cc1 [drawing 803]
[4]; iv, 1 mg/kg, 1MPK i.v.
  Kp at 30 min: 0.24
[4]; iv, 3 mg/kg, 3 MPK i.v., 6 hr
  Kp at 6 h: 0.49
[4]; iv, 3 MPK i.v. @ 6 hr, 1MPK @ 0.5 hr and 2 hr, 1 hr
  Kp at 1 hr: 0.53
[4]; iv, 3 MPK i.v. @ 6 hr, 1MPK @ 0.5 hr and 2 hr
  Kp: 0.42
[5]
  BBB Pene Classification: Low

## O=C1N(C[C@H](O)COc2ccc(O)cc2)CCN1c1ccc(Cl)cc1 [drawing 804]
[4]; iv, 3 mg/kg, 3 MPK i.v.
  Kp at 30 min: 0.68
  Kp: 0.59
[4]; iv, 3 mg/kg, 3 MPK i.v., 1 hr
  Kp at 1 h: 0.49
[5]
  BBB Pene Classification: High (when Papp A−B≧3.0×10−6 cm/s, and efflux<3.0)
